According to ChEMBL document CHEMBL1121535, “Stereochemical requirements for cannabinoid activity” (J Med Chem, 1980):
Active and inactive are the calls of the source. No cut-off for these calls is given here.

Columns and labels:
Type in all cases: functional, organism-based
Conditions in all cases: Cercopithecidae
Monkey [1] = assay: The compound was evaluated for the rating of psychotropic effects in rhesus monkey at a dose of 1 mg/Kg; value is (-) No change
Monkey [2] = assay: The compound was evaluated for the rating of psychotropic effects in rhesus monkey at a dose of 5 mg/Kg; value is (-) No change
Monkey [3] = assay: The compound was evaluated for the rating of psychotropic effects in rhesus monkey at a dose of 2 mg/Kg; value is (+) drowsiness, decreased motor activity, occasional partial ptosis, occasional head drop
Monkey [4] = assay: The compound was evaluated for the rating of psychotropic effects in rhesus monkey at a dose of 0.5 mg/Kg; value is (++) stupor, ataxia, suppression of motor activity, full ptosis
Monkey [5] = assay: The compound was evaluated for the rating of psychotropic effects in rhesus monkey at a dose of 0.1 mg/Kg; value is (+/-) tranquility
Monkey [6] = assay: The compound was evaluated for the rating of psychotropic effects in rhesus monkey at a dose of 0.25 mg/Kg; value is (++) stupor, ataxia, suppression of motor activity, full ptosis
Monkey [7] = assay: The compound was evaluated for the rating of psychotropic effects in rhesus monkey at a dose of 1 mg/Kg; value is (++) stupor, ataxia, suppression of motor activity, full ptosis
Monkey [8] = assay: The compound was evaluated for the rating of psychotropic effects in rhesus monkey at a dose of 0.5 mg/Kg; value is (+) drowsiness, decreased motor activity, occasional partial ptosis, occasional head drop
Monkey [9] = assay: The compound was evaluated for the rating of psychotropic effects in rhesus monkey at a dose of 2 mg/Kg; value is (-) No change
Monkey [10] = assay: The compound was evaluated for the rating of psychotropic effects in rhesus monkey at a dose of 5 mg/Kg; value is (+) drowsiness, decreased motor activity, occasional partial ptosis, occasional head drop
Monkey [11] = assay: The compound was evaluated for the rating of psychotropic effects in rhesus monkey at a dose of 0.25 mg/Kg; value is (-) No change
Monkey [12] = assay: The compound was evaluated for the rating of psychotropic effects in rhesus monkey at a dose of 2 mg/Kg; value is (++) stupor, ataxia, suppression of motor activity, full ptosis
Monkey [13] = assay: The compound was evaluated for the rating of psychotropic effects in rhesus monkey at a dose of 0.05 mg/Kg; value is (-) No change
Monkey [14] = assay: The compound was evaluated for the rating of psychotropic effects in rhesus monkey at a dose of 0.1 mg/Kg; value is (++) stupor, ataxia, suppression of motor activity, full ptosis

With `CCCCCc1cc(OC(C)=O)c2c(c1)OC(C)(C)[C@@H]1CC[C@H](COC(C)=O)CC21` (stereo not given in full) the Activity (Monkey [1]) was “inactive” and the Activity (Monkey [2]) was “inactive”.

For `CCCCCc1cc(O)c2c(c1)OC(C)(C)[C@@H]1CC[C@H](C)CC21` (stereo not given in full), the Activity (Monkey [1]) was “inactive” and the Activity (Monkey [3]) was “drowsiness, decreased motor activity, occasional partial ptosis, occasional head drop”.

With `CCCCCc1cc(O)c2c(c1)OC(C)(C)[C@@H]1CC=C(C)CC21` (stereo not given in full) the Activity (Monkey [4]) was “Active”, the Activity (Monkey [5]) was “inactive” and the Activity (Monkey [6]) was “Active”.

In the case of `CCCCCc1cc(OC(C)=O)c2c(c1)OC(C)(C)[C@@H]1CCC(COC(C)=O)CC21` (stereo not given in full), the Activity (Monkey [7]) is reported as “drowsiness, decreased motor activity, occasional partial ptosis, occasional head drop” and the Activity (Monkey [8]) is reported as “drowsiness, decreased motor activity, occasional partial ptosis, occasional head drop”.

`CCCCCc1cc(O)c2c(c1)OC(C)(C)[C@@H]1CC(O)[C@H](C)CC21` (stereo not given in full) was tested, and the Activity (Monkey [1]) was “inactive” and the Activity (Monkey [2]) was “inactive”.

For `CCCCCc1cc(O)c2c(c1)OC(C)(C)[C@@H]1CC[C@H](C)C(O)C21` (stereo not given in full), the Activity (Monkey [1]) was “inactive” and the Activity (Monkey [2]) was “inactive”.

In the case of `CCCCCc1cc(O)c2c(c1)OC(C)(C)[C@@H]1CCC(C)[C@H](O)C21` (stereo not given in full), the Activity (Monkey [1]) is reported as “inactive”, the Activity (Monkey [9]) is reported as “inactive” and the Activity (Monkey [10]) is reported as “drowsiness, decreased motor activity, occasional partial ptosis, occasional head drop”.

With `CCCCCc1cc(O)c2c(c1)OC(C)(C)[C@@H]1CC[C@@H](C)CC21` (stereo not given in full) the Activity (Monkey [4]) was “stupor,ataxia, suppression of motor activity, full ptosis” and the Activity (Monkey [5]) was “+/-”.

`CCCCCc1cc(O)c2c(c1)OC(C)(C)[C@@H]1C[C@H](O)C(C)CC21` (stereo not given in full) was tested, and the Activity (Monkey [1]) was “inactive”, the Activity (Monkey [9]) was “inactive” and the Activity (Monkey [2]) was “inactive”.

With `CCCCCc1cc(O)c2c(c1)OC(C)(C)[C@@H]1C[C@H](O)[C@H](C)CC21` (stereo not given in full) the Activity (Monkey [7]) was “drowsiness, decreased motor activity, occasional partialptosis,occasional head drop”, the Activity (Monkey [11]) was “inactive” and the Activity (Monkey [8]) was “drowsiness, decreased motor activity, occasional partialptosis,occasional head drop”.

With `CCCCCc1cc(O)c2c(c1)OC(C)(C)[C@@H]1CC[C@H](C)[C@H](O)C21` (stereo not given in full) the Activity (Monkey [7]) was “drowsiness, decreased motor activity, occasional partial ptosis, occasional head drop”, the Activity (Monkey [12]) was “drowsiness, decreased motor activity, occasional partial ptosis, occasional head drop” and the Activity (Monkey [8]) was “drowsiness, decreased motor activity, occasional partial ptosis, occasional head drop”.

With `CCCCCc1cc(O)c2c(c1)OC(C)(C)[C@@H]1CCC(C)=C[C@@H]21` the Activity (Monkey [13]) was “inactive”, the Activity (Monkey [14]) was “Active” and the Activity (Monkey [6]) was “Active”.
